Legend:
GXMT1 [1] = target: T1, GXMT1 (Arabidopsis thaliana, UniProt Q9LQ32); experiment: GXMT1 4-O-methyltransferase activity of metal-depleted enzyme, SAH formation by LC-ESI-MS; assay type: biochemical; details: for effect on GXMT1 enzyme activity: metal salts or EDTA at 1 mM, metal-depleted GXMT1
T1 construct: made in house; host or cells: E. coli BL21-CodonPlus (DE3)-RIPL, pGEX-5X1 vector
T1 sequence (Q9LQ32 44-297): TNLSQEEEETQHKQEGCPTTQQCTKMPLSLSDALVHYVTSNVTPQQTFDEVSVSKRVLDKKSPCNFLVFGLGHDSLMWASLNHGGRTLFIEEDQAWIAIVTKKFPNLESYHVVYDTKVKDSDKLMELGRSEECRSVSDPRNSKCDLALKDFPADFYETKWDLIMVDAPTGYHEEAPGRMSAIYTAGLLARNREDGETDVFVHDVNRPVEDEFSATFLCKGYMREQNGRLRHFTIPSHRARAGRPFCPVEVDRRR
Method: The transfer of a methyl group from SAM to GlcA results in the formation of S-adenosyl homocysteine (SAH). The amounts of SAH formed were determined by LC-ESI-MS (Salyan et al., 2006, Anal Biochem 349:112-117). (B) The effect on GXMT activity of different divalent metals. Protein and buffer solutions were treated with Chelex-100 resin to remove divalent cations prior to initiating the methylation reaction. Metal salts or EDTA were used at a concentration of 1 mM. […] Reaction mixtures were allowed to equilibrate to the specified temperature for 30 min and then the methylation reaction was initiated by the addition of SAMe (15 mM).
Determination of methyltransferase activity using LC-ESI-MS. Glucuronoxylan 4-O-methyltransferase activity was determined using a liquid chromatography-electrospray ionization/mass spectroscopy (LC-ESI-MS) method using selective reaction monitoring (SRM) that measures the formation of S-adenosylhomocysteine from SAM (S17). LC-ESI-MS analyses were performed on a LTQ-XL linear ion trap mass spectrometer (ThermoFisher, Waltham, Mass.) equipped with a Surveyor MS Pump Plus HPLC, a Surveyor Autosampler Plus. Chromatographic separation was as described (Salyan et al., 2006, Anal Biochem 349:112-117). S-adenosylhomocysteine (SAH) eluted at 3.2 min. Thus, the material eluting between 2.5 and 5 min was transferred to the mass spectrometer using an in-line divert/inject valve. The selected reaction monitoring transition used was 385.1>250.1 with a collision energy of 20%. The detection limit was 60.25 nM S-adenosylhomocysteine with a linear response up to 3 μM. […]

GXMT1 [2] = target: T1, GXMT1; experiment: GXMT1 methyltransferase activity monitored by 1H NMR (GlcA methylation of gxmt1-1 glucuronoxylan); assay type: biochemical
Method: FIG. 12. […] After 48 hours the products formed were treated with endoxylanase and the resulting oligosaccharides were characterized by ^1H NMR spectroscopy. The extent of GlcA methylation was determined by integration of the GlcA (U) and 4-O-methyl GlcA (M) H1 signals (see FIG. 1B).
Determination of Methyltransferase Activity using ^1H-NMR Spectroscopy and LC-ESI-MS. The temperature optimum for GXMT1 activity was between 19-25° C. (FIG. 10C). The transfer of methyl groups to O-4 of GlcA was established by ^1H NMR spectroscopy. Assays were performed at 23° C. in 50 mM potassium bicarbonate, pH 7.5, (250 μL) containing acceptor substrate equivalent to 2.27 mM available GlcA residues, recombinant GXMT1 (10 μM), CoCl2 (2 mM) and 1.5 mM S-adenosyl-L-methionine sulfate p-toluenesulfonate, unless otherwise indicated. The formation of SAH from SAM was determined using LC-ESI-MS (Salyan et al., 2006, Anal Biochem 349:112-117). […] Details of both assays are in Example 2.
Monitoring methyltransferase activity by ^1H-NMR spectroscopy. […] The dry reaction products were dissolved in 0.25 mL D2O and analyzed by ^1H-NMR spectroscopy. Spectra were recorded before and after endoxylanase treatment, when polymeric xylan was used as a substrate.

Structure (SMILES): [Cl-].[Cl-].[Co+2] [Co^2+]
- enhancement of GXMT1 activity (GXMT1 [1]; metal salts at 1 mM, metal-depleted GXMT1 3.4 μM, 180 min, average): 1,180%

Structure (SMILES): [Cu+2] [Cu^2+]
- effect on GXMT1 enzyme activity (GXMT1 [1]): completely inhibited

Structure (SMILES): O=C(O)CN(CCN(CC(=O)O)CC(=O)O)CC(=O)O [EDTA]
- effect on GXMT1 enzyme activity (GXMT1 [1]): completely inhibited

Structure (SMILES): Nc1ncnc2c1ncn2[C@@H]1O[C@H](CSCC[C@H](N)C(=O)O)[C@@H](O)[C@H]1O [SAH, S-adenosyl-L-homocysteine]
- reduction of O-methyl transferase activity (GXMT1 [2]; 1.5 mM SAH with SAM, 10 μM GXMT1, 48 hours): over 50%
- effect on in vitro GXMT1 activity (GXMT1 [2]; SAH added at the start of the reaction): inhibited

Source: patent US20140331363A1, “PLANTS WITH ALTERED GLUCURONOXYLAN METHYL TRANSFERASE ACTIVITY AND METHODS OF USE” (UNIVERSITY OF GEORGIA RESEARCH FOUNDATION, INC., priority 2011, published 2014)
